Assay results as given in patent publication US20240156999A1, “MULTIMERIC CHELATOR COMPOUNDS FOR USE IN TARGETED RADIOTHERAPY” (Bayer Aktiengesellschaft, priority 2021, published 2024).

What was measured:
[1] = Radiochemical purity (RCP) by iTLC after radiolabeling with Ac-225; assay type: physicochemical; conditions: labelling concentration 0.02 mM
Protocol: (§1) Aliquots of Ac-225 in 0.04 M HCl or Ra-223 in 0.05 M HCl were withdrawn into Eppendorf tubes. The radioactivity in each tube was measured by HPGe detector. Solutions of compounds in 0.1 M sodium acetate, pH 5-5.5 (with additional 0.1 M NaCl for ACC solutions) were added to the tubes. RAC was in the range of 1-5 M Bq/mL and specific activity in the range of 2-200 kBq/nmol. The labelling solutions were left for 60-90 min at room temperature.
(§2) Radiochemical purity (RCP) of the labeled compounds was determined by iTLC. iTLC strips were cut from silica impregnated chromatography paper, approx. 1 cm wide and 11 cm long. The strips were marked with a pen at 1 cm (application point), 4 cm (cut line for ACCs) or 5 cm (cut line for chelators) and 8 cm (front line). A beaker was filled up to 0.5 cm with 0.1 M citrate in 0.9% NaCl, pH 5.5. 1-10 μL of the radiolabeled compound was added to the application point and the strips immediately placed vertically in the beaker. The strips were removed when the solvent front reached the front line and then cut in two sections at the cut line. Each section was measured using a HPGe detector (ORTEC) to determine the radioactivity origin from the nuclide of interest. The RCP, in percentage, forthe nuclide of interest was calculated using the following equation: […]

[2] = Radiochemical purity (RCP) by iTLC after radiolabeling with Ra-223; assay type: physicochemical; conditions: for labelling efficiency with radium-223: compared to monomeric macropa, at 0.1 and 0.02 mM, as low as 0.005 mM for Oct2; for RCP Ra-223: iTLC
Protocol: as §1, §2

[3] = cited from earlier work
[4] = Radio-HPLC analysis of Ra-223 labelled compound with peak fractioning; assay type: physicochemical
Protocol: Radiolabeled compounds were analyzed by radio-HPLC using either a) Vanquish HPLC system (Thermo) equipped with a diode array detector and a Flowstar LB 514 radio detector (Berthold technologies); or b) an 1290 Infinity-II HPLC system (Agilent) equipped with a diode array detector and flow-count radio detector (Eckert & Ziegler).
Labelled chelator compounds were eluted using A=40 mM TRIS/6 mM citrate/2 mM EDTA and B=ACN/MeOH (8:2); aKinetexC18 (30×2.1 mm), 1.7 μm, 100 Å, Phenomenex); gradient 5-50% B for 10 min; flow rate of 0.3 mL/min or a Discovery RP amide c16 (150×2.1mm), 5 um, 100 Å, Gradient: 5-50% B for 12.5 min; flow rate of 0.6 mL/min.
Radio-HPLC peak fractioning was performed to determine the radionuclide(s) associated to each radio peak. The collected peak fractions were analysed using an HPGe detector.

[5] = labelling concentration 0.02 mM
[6] = labelling concentration 0.005 mM
[7] = labelling concentration 0.27 mM

SMILES	RCP Ac-225 [1] [%]	labelling efficiency with radium-223 [2]	RCP Ra-223 [2, 5] [%]	RCP Ra-223 [2, 6] [%]	other results
O=C(O)c1cccc(CN2CCOCCOCCN(Cc3cccc(C(=O)O)n3)CCOCCOCC2)n1 [Macropa, 6,6′-[1,4,10,13-tetraoxa-7,16-diazacyclooctadecane-7,16-diylbis(methylene)]dipyridine-2-carboxylic acid, reference compound]	100	–	–	8	complexation of radium-223 ([2]; at 0.1, 0.02 and 0.005 mM concentrations): no complexation of radium-223 was observed; RCP Ra-223 [2, 7]: 12%; selectivity for large over small alkaline earth metals [3]: excellent selectivity; affinity for Ba2+ ([3]; pH 7.4): highest affinity
Nc1cc(CN2CCOCCOCCN(Cc3cccc(C(=O)O)n3)CCOCCOCC2)nc(C(=O)O)c1 [Macropa-NH2, reference compound]	99	–	–	–	RCP Ra-223 ([2]; labelling concentration 0.1 mM): 2%; RCP Ra-223 [2, 7]: 12%
O=C(CCc1cc(CN2CCOCCOCCN(Cc3cccc(C(=O)O)n3)CCOCCOCC2)nc(C(=O)O)c1)NCCCC[C@H](NC(=O)CCc1cc(CN2CCOCCOCCN(Cc3cccc(C(=O)O)n3)CCOCCOCC2)nc(C(=O)O)c1)C(=O)NCCN(CCCN(CCNC(=O)[C@H](CCCCNC(=O)CCc1cc(CN2CCOCCOCCN(Cc3cccc(C(=O)O)n3)CCOCCOCC2)nc(C(=O)O)c1)NC(=O)CCc1cc(CN2CCOCCOCCN(Cc3cccc(C(=O)O)n3)CCOCCOCC2)nc(C(=O)O)c1)CCNC(=O)[C@H](CCCCNC(=O)CCc1cc(CN2CCOCCOCCN(Cc3cccc(C(=O)O)n3)CCOCCOCC2)nc(C(=O)O)c1)NC(=O)CCc1cc(CN2CCOCCOCCN(Cc3cccc(C(=O)O)n3)CCOCCOCC2)nc(C(=O)O)c1)CCNC(=O)[C@H](CCCCNC(=O)CCc1cc(CN2CCOCCOCCN(Cc3cccc(C(=O)O)n3)CCOCCOCC2)nc(C(=O)O)c1)NC(=O)CCc1cc(CN2CCOCCOCCN(Cc3cccc(C(=O)O)n3)CCOCCOCC2)nc(C(=O)O)c1 [Oct2]	–	high labelling efficiency	–	64	–
O=C(COCC(=O)Nc1cc(CN2CCOCCOCCN(Cc3cccc(C(=O)O)n3)CCOCCOCC2)nc(C(=O)O)c1)NCCN(CCCN(CCNC(=O)COCC(=O)Nc1cc(CN2CCOCCOCCN(Cc3cccc(C(=O)O)n3)CCOCCOCC2)nc(C(=O)O)c1)CCNC(=O)COCC(=O)Nc1cc(CN2CCOCCOCCN(Cc3cccc(C(=O)O)n3)CCOCCOCC2)nc(C(=O)O)c1)CCNC(=O)COCC(=O)Nc1cc(CN2CCOCCOCCN(Cc3cccc(C(=O)O)n3)CCOCCOCC2)nc(C(=O)O)c1 [Tet2, 4,4′-[(9,13-bis{2-[2-(2-{[2-carboxy-6-({16-[(6-carboxypyridin-2-yl)methyl]-1,4,10,13-tetraoxa-7,16-diazacyclooctadecan-7-yl}methyl)pyridin-4-yl]amino}-2-oxoethoxy)acetamido]ethyl}-1,5,17,21-tetraoxo-3,19-dioxa-6,9,13,16-tetraazahenicosane-1,21-diyl)diimino]bis[6-({16-[(6-carboxypyridin-2-yl)methyl]-1,4,10,13-tetraoxa-7,16-diazacyclooctadecan-7-yl}methyl)pyridine-2-carboxylic acid]]	–	high labelling efficiency	74	–	–
O=C(CCc1cc(CN2CCOCCOCCN(Cc3cccc(C(=O)O)n3)CCOCCOCC2)nc(C(=O)O)c1)NCCN(CCCN(CCNC(=O)CCc1cc(CN2CCOCCOCCN(Cc3cccc(C(=O)O)n3)CCOCCOCC2)nc(C(=O)O)c1)CCNC(=O)CCc1cc(CN2CCOCCOCCN(Cc3cccc(C(=O)O)n3)CCOCCOCC2)nc(C(=O)O)c1)CCNC(=O)CCc1cc(CN2CCOCCOCCN(Cc3cccc(C(=O)O)n3)CCOCCOCC2)nc(C(=O)O)c1 [Tet5, 4,4′-[7,11-bis(2-{3-[2-carboxy-6-({16-[(6-carboxypyridin-2-yl)methyl]-1,4,10,13-tetraoxa-7,16-diazacyclooctadecan-7-yl}methyl)pyridin-4-yl]propanamido}ethyl)-3,15-dioxo-4,7,11,14-tetraazaheptadecane-1,17-diyl]bis[6-({16-[(6-carboxypyridin-2-yl)methyl]-1,4,10,13-tetraoxa-7,16-diazacyclooctadecan-7-yl}methyl)pyridine-2-carboxylic acid]]	–	high labelling efficiency	95	36	–

Further lines, with some results ahead:

RCP Ac-225 [1] [%]	labelling efficiency with radium-223 [2]	RCP Ra-223 [2, 5] [%]	RCP Ra-223 [2, 6] [%]	SMILES	other results
100	high labelling efficiency	80	–	COC(=O)c1cccc(CN2CCOCCOCCN(Cc3cc(NC(=O)COCC(=O)NCCN(CCN)CCCN(CCN)CCNC(=O)COCC(=O)Nc4cc(CN5CCOCCOCCN(Cc6cccc(C(=O)OC)n6)CCOCCOCC5)nc(C(=O)OC)c4)cc(C(=O)OC)n3)CCOCCOCC2)n1 [Dim1, Dimethyl 4,4′-{[9,13-bis(2-aminoethyl)-1,5,17,21-tetraoxo-3,19-dioxa-6,9,13,16-tetraazahenicosane-1,21-diyl]diimino}bis{6-[(16-{[6-(methoxycarbonyl)pyridin-2-yl]methyl}-1,4,10,13-tetraoxa-7,16-diazacyclooctadecan-7-yl)methyl]pyridine-2-carboxylate}]	–
100	–	–	–	O=C(O)c1cccc(CN2CCOCCOCCN(Cc3cccc(CN4CCOCCOCCN(Cc5cccc(C(=O)O)n5)CCOCCOCC4)n3)CCOCCOCC2)n1 [Dim2, 6,6′-[pyridine-2,6-diylbis(methylene-1,4,10,13-tetraoxa-7,16-diazacyclooctadecane-16,7-diylmethylene)]dipyridine-2-carboxylic acid]	RCP Ra-223 ([2]; labelling concentration 0.2 mM): 11%
100	–	–	–	O=C(O)c1cccc(CN2CCOCCOCCN(Cc3cccc(C(=O)NCCCC[C@@H](NC(=O)c4cccc(CN5CCOCCOCCN(Cc6cccc(C(=O)O)n6)CCOCCOCC5)n4)C(=O)O)n3)CCOCCOCC2)n1 [Dim3, 6-[[16-[[6-[[(5R)-5-carboxy-5-[[6-[[16-[(6-carboxy-2-pyridyl)methyl]-1,4,10,13-tetraoxa-7,16-diazacyclooctadec-7-yl]methyl]pyridine-2-carbonyl]amino]pentyl]carbamoyl]-2-pyridyl]methyl]-1,4,10,13-tetraoxa-7,16-diazacyclooctadec-7-yl]methyl]pyridine-2-carboxylic acid]	RCP Ra-223 ([2]; labelling concentration 0.2 mM): 32%
99	high labelling efficiency	95	–	COC(=O)c1cccc(CN2CCOCCOCCN(Cc3cc(NC(=O)COCC(=O)NCCN(CCCN(CCNC(=O)COCC(=O)Nc4cc(CN5CCOCCOCCN(Cc6cccc(C(=O)OC)n6)CCOCCOCC5)nc(C(=O)OC)c4)CCNC(=O)COCC(=O)Nc4cc(CN5CCOCCOCCN(Cc6cccc(C(=O)OC)n6)CCOCCOCC5)nc(C(=O)OC)c4)CCNC(=O)COCC(=O)Nc4cc(CN5CCOCCOCCN(Cc6cccc(C(=O)OC)n6)CCOCCOCC5)nc(C(=O)OC)c4)cc(C(=O)OC)n3)CCOCCOCC2)n1 [Tet1]	labeling of solution with Ra-223 ([4]; 0.02 mM solution): efficient labeling; wash through of free radioactivity in the void volume ([4]; radio HPLC, Ra-223 labelled): almost no wash through of free radioactivity
–	high labelling efficiency	89	–	COC(=O)c1cccc(CN2CCOCCOCCN(Cc3cc(NC(=O)COCC(=O)NCCN(CCN)CCCN(CCNC(=O)COCC(=O)Nc4cc(CN5CCOCCOCCN(Cc6cccc(C(=O)OC)n6)CCOCCOCC5)nc(C(=O)OC)c4)CCNC(=O)COCC(=O)Nc4cc(CN5CCOCCOCCN(Cc6cccc(C(=O)OC)n6)CCOCCOCC5)nc(C(=O)OC)c4)cc(C(=O)OC)n3)CCOCCOCC2)n1 [Tri1]	–
